Test results taken from ChEMBL document CHEMBL1201862, “PubChem BioAssay data set” (2004).
The source made the active and inactive calls.

Assays:
Large T antigen = Large T antigen (Simian virus 40, UniProt P03070); format: functional, Betapolyomavirus macacae;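 note: Confirmatory-stage PubChem screen for compounds that inhibit SV40 T antigen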
[1] = molecular target: T1, Rac GTPase-activating protein 1 (Homo sapiens, UniProt Q9H0H5); assay: MgcRacGAP GTPase-activating activity inhibitors, confirmation, biochemical, ADP Hunter fluorescence, primary and confirmatory (AID 624330); format: functional
T1 sequence (Q9H0H5 whole entry): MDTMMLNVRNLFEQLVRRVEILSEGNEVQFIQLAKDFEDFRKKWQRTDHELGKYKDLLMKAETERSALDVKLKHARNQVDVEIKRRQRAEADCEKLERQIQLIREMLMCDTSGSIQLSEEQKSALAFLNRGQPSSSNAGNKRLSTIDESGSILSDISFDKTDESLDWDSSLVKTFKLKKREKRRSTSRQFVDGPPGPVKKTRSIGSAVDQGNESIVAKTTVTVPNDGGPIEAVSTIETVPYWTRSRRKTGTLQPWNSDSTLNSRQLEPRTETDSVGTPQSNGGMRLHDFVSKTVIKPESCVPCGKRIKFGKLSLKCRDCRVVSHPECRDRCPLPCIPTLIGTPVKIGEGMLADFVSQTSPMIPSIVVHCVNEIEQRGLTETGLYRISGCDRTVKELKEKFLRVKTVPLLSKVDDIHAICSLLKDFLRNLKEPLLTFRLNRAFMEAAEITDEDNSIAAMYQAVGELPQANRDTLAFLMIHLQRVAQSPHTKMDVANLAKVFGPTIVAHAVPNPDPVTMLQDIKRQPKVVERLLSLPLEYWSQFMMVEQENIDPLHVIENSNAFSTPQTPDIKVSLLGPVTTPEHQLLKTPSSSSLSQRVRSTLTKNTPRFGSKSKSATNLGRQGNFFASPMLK

cells = format: functional
[2] = THP-1 cell cytotoxicity, dose response, cytotoxicity control for non-replicating M. tuberculosis project (AID 489025); format: functional
[3] = molecular target: T2, Replicative DNA helicase DnaB (Mycobacterium tuberculosis, UniProt P9WMR3); assay: DnaB intein splicing inhibitors, dose response, biochemical, cell-free fluorescence (AID 449749); format: functional
T2 sequence (P9WMR3 whole entry): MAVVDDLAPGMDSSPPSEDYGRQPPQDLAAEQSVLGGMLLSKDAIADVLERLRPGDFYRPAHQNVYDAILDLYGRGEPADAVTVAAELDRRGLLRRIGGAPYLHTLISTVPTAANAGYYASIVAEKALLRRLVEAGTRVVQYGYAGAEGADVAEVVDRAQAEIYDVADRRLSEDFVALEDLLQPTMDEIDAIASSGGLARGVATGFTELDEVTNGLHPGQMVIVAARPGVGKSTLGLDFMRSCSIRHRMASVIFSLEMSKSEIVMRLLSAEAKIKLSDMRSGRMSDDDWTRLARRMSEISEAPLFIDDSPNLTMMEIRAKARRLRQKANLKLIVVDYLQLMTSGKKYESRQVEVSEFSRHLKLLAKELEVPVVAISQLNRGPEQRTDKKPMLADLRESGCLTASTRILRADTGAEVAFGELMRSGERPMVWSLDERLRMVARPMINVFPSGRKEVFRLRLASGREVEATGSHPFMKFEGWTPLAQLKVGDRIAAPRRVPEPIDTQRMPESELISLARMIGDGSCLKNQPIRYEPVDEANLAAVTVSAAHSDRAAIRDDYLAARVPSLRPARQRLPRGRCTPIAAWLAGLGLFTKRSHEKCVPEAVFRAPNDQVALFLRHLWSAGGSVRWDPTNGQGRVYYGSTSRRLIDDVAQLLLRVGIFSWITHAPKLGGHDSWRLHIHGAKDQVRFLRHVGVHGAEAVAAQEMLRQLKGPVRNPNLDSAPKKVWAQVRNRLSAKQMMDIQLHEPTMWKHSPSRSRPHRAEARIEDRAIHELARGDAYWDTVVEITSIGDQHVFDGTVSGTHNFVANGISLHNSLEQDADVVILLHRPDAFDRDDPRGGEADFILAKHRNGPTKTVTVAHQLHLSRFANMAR

Protein RecA = molecular target: T3, Protein RecA (Mycobacterium tuberculosis, UniProt P9WHJ3); assay: Fluorescence Cell-Free Homogeneous Dose Retest to Identify Inhibitors of RecA-Intein Splicing Activity. [Related pubchem assays (depositor defined):AID2097, AID2223, AID489010, AID492950]; format: functional
T3 sequence (P9WHJ3 whole entry): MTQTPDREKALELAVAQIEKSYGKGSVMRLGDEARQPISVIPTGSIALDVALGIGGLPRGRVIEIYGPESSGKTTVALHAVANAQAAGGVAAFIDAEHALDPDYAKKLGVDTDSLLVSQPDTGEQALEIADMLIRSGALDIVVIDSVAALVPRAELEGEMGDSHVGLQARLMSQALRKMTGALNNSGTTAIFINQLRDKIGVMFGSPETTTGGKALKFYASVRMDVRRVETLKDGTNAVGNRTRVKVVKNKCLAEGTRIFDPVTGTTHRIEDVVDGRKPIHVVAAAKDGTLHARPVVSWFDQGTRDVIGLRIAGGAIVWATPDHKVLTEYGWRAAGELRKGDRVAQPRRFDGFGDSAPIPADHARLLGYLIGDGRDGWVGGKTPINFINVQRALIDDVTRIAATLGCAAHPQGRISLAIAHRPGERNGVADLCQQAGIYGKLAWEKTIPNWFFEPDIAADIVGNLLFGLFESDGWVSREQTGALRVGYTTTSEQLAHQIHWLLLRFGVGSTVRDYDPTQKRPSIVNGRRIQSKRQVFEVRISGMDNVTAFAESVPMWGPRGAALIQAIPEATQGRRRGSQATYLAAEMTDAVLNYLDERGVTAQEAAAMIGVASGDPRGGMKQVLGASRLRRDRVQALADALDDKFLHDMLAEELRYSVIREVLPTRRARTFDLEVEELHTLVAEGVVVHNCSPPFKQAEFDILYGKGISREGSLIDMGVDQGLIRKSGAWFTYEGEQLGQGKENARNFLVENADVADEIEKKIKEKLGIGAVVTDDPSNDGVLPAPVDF

[4] = inhibitors of Bluetongue virus cytopathic effect, confirmation, arbovirus, BSR cells (AID 1250); format: functional;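 note: protection from viral cytopathic effect measured as cell viability by ATP luminescence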
Leucine aminopeptidase = molecular target: T4, Leucine aminopeptidase (Plasmodium falciparum 3D7, UniProt Q8IL11); assay: P. falciparum M17LAP inhibitors, primary screen, biochemical, fluorogenic H-Leu-NHMec substrate, 1536-well (AID 1619); format: functional
T4 sequence (Q8IL11 whole entry): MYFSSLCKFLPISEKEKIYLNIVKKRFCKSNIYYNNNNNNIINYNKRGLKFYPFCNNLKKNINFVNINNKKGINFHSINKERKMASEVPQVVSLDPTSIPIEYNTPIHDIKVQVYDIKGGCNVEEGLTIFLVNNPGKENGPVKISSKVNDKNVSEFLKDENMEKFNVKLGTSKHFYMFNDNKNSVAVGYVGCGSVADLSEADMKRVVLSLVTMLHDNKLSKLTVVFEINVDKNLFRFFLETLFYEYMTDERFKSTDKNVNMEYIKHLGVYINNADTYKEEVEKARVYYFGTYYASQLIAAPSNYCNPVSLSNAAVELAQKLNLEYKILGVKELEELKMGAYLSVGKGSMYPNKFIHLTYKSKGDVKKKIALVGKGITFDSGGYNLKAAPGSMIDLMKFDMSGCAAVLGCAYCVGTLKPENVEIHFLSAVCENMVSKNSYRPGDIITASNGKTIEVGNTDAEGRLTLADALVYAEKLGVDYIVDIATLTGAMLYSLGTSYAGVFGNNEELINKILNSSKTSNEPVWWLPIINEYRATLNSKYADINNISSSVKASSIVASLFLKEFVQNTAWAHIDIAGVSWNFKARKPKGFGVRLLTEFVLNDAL

Aminopeptidase N = molecular target: T5, Aminopeptidase N (Plasmodium falciparum FcB1/Columbia, UniProt O96935); assay: P. falciparum M1AAP inhibitors, biochemical, fluorogenic H-Leu-NHMec substrate, 1536-well (AID 1445); parameters: species or system Plasmodium falciparum 3D7, 3D7
T5 sequence (O96935 whole entry): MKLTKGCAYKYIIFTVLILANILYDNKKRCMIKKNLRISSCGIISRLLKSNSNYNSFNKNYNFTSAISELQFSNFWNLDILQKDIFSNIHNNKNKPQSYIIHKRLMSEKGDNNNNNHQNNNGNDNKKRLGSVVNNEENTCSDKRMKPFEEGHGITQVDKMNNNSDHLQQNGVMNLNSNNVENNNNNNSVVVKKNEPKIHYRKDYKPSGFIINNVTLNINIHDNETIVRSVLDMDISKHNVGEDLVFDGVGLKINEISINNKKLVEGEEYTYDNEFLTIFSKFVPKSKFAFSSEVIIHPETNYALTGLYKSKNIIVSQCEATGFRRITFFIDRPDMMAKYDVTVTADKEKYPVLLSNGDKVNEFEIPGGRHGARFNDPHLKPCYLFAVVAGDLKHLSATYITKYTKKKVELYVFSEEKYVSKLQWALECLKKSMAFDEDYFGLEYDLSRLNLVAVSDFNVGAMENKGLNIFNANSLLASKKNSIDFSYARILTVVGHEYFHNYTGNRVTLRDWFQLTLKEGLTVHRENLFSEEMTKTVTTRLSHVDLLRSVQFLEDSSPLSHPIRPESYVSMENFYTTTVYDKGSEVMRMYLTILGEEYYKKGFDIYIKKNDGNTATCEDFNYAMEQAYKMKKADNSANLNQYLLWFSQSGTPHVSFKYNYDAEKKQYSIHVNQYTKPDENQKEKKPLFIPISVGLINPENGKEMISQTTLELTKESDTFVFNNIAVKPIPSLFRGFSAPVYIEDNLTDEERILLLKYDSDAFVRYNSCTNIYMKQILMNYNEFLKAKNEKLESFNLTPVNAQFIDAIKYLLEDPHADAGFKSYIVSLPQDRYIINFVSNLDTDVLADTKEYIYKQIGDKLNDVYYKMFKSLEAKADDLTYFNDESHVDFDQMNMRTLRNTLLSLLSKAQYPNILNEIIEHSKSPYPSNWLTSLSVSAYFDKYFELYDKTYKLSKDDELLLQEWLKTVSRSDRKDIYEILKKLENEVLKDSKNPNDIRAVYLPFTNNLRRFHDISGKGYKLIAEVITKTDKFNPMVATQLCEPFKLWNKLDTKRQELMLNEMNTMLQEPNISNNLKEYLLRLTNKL

[5] = NIH-3T3 fibroblast cytotoxicity, dose response, cytotoxicity control, cell-based, fluorescence, Alamar Blue, secondary assay (AID 2327); format: functional;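 note: NIH-3T3 mouse fibroblasts cultured with fluconazole at 8 µg/mL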
[6] = C. albicans growth with fluconazole, confirmation, fluorescence, retest (AID 2467); format: functional, cell-based
Genome polyprotein = Genome polyprotein (dengue virus type 2, UniProt P29990); assay: Dengue-2 NS5 methyltransferase inhibitors, primary screen, biochemical, confirmation dose response (AID 588689); format: functional
Cytochrome P450 2D6 = Cytochrome P450 2D6 (Homo sapiens, UniProt P10635);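 note: CYP2D6 member of a cytochrome P450 panel assay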
Cytochrome P450 1A2 = molecular target: T6, Cytochrome P450 1A2 (Homo sapiens, UniProt P05177);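 note: PubChem cytochrome P450 panel assay, CYP1A2 panel member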
T6 sequence (P05177 whole entry): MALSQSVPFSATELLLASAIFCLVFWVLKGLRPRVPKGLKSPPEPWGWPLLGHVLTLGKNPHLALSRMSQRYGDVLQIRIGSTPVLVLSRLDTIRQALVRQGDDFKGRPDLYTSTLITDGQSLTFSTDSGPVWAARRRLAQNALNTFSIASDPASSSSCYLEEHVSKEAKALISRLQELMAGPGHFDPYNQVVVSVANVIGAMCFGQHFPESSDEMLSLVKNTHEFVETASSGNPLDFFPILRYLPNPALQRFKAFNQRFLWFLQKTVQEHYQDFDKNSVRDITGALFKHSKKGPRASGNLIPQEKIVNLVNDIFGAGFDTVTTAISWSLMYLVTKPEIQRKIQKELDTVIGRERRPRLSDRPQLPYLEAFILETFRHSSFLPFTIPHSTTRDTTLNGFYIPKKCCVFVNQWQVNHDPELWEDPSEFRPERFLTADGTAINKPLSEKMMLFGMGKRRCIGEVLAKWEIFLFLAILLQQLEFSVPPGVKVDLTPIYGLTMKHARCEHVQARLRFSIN

[7] = molecular target: DNA dC->dU-editing enzyme APOBEC-3A (Homo sapiens, UniProt P31941); assay: Dose Response confirmation of small molecule APOBEC3A DNA Deaminase Inhibitors via a fluorescence-based single-stranded DNA deaminase assay. [Related pubchem assays (depositor defined):AID493011, AID493024]; format: functional
Chain of DNA dC->dU-editing enzyme APOBEC-3A (P31941 whole entry): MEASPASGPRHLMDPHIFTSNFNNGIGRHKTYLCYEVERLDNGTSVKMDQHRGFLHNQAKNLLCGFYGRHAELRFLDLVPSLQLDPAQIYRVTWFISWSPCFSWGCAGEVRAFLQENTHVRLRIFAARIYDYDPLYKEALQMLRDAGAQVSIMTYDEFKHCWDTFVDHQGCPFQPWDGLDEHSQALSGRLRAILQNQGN

Chain of Large T antigen (P03070 whole entry): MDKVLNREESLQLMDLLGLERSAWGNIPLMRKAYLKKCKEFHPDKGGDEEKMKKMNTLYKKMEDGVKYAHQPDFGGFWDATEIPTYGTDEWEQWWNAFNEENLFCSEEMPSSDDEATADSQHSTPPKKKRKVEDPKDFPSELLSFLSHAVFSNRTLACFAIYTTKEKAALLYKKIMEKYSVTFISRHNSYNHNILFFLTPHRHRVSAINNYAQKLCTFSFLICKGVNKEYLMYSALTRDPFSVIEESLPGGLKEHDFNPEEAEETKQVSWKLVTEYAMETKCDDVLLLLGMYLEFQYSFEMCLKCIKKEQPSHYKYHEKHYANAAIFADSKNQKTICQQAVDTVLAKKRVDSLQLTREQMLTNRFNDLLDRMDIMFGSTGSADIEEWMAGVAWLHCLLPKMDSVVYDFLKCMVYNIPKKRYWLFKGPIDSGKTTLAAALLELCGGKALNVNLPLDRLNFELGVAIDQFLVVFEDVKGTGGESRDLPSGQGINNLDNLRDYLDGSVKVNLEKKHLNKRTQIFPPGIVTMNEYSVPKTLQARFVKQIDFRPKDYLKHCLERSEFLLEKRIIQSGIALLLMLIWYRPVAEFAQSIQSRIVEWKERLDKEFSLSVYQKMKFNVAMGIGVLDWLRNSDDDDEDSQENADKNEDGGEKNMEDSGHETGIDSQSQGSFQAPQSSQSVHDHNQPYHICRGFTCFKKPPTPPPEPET
Chain of Cytochrome P450 2D6 (P10635 whole entry): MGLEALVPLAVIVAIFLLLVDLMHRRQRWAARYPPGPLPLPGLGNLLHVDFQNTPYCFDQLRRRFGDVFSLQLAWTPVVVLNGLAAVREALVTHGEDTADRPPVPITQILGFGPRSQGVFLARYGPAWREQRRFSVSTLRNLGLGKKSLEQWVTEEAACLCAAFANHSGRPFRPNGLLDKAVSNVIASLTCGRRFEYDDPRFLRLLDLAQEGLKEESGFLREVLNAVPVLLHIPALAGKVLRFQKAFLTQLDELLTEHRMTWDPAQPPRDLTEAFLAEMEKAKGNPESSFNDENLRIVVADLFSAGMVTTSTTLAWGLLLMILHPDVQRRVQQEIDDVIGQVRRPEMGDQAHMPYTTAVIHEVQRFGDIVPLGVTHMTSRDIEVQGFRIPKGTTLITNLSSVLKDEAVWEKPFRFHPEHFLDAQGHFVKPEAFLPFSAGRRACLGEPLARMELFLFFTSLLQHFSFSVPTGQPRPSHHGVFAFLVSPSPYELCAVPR
Chain of Genome polyprotein (P29990 2492-3391 limits assumed): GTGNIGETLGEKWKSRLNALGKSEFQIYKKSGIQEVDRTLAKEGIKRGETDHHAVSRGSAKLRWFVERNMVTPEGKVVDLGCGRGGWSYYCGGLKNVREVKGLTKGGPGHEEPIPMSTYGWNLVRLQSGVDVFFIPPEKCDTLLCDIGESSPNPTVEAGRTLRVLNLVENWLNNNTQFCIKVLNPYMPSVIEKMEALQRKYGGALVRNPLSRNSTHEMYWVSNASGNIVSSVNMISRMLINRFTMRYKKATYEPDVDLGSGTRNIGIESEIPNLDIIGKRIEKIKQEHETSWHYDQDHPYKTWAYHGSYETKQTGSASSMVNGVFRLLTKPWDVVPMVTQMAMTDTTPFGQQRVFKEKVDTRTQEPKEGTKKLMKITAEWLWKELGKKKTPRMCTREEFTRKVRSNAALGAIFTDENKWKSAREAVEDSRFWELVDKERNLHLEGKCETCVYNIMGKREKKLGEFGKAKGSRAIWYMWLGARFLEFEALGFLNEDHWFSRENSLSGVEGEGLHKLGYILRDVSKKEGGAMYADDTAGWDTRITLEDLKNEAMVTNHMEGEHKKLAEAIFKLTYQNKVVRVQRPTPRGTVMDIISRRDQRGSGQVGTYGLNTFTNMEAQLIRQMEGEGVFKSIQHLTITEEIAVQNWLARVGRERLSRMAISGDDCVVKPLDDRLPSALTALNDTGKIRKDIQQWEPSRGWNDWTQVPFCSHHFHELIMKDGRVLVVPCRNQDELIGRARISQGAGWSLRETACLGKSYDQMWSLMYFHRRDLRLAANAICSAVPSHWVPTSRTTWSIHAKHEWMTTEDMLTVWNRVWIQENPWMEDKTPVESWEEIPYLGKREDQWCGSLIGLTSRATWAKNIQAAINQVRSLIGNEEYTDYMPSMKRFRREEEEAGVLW

CN(C)c1ccc(NC(=O)CN2C(=O)CN=C(c3ccccc3)c3ccccc32)cc1
IC50 (Large T antigen): 11.9 µM (active) | IC50 [1]: 72 µM (active)

COC(=O)c1ccccc1Sc1ncnc2onc(C)c12
IC50 (cells): 10.9 µM (active) | CC50 [2]: > 40 µM (active) | AC50 [3]: 12.4 µM (active) | EC50 (Protein RecA): 9.04 µM (active)

O=C1NC(=O)N(Cc2ccccc2)C(=O)/C1=C/NNC(=O)c1ccccc1O
IC50 [4]: 97.4 µM (active) | IC50 (Leucine aminopeptidase): 62.3 µM (active) | IC50 (Aminopeptidase N): 17.3 µM (active)

Cc1nc(N)sc1N=Nc1c(C)n(C)n(-c2ccccc2)c1=O
IC50 (Large T antigen): 17.3 µM (active)

O=C1NC2(CCC3(CC2)OCCO3)NN1c1ccc(Cl)cc1
CC50 [2]: > 40 µM (active) | EC50 [5]: > 150 µM (inactive) | EC50 [6]: 1.64 µM (active)

COc1cc(/C=C2\C(=O)NC(=O)N(CCc3ccc(F)cc3)C2=O)ccc1O
IC50 (Large T antigen): 20 µM (active) | IC50 (Leucine aminopeptidase): 15.8 µM (active)

O=C1Nc2ccc(F)cc2C12Nc1ccccc1-c1nnc(SCc3ccccc3F)nc1O2 (stereo unspecified)
IC50 (Genome polyprotein): 30.8 µM (active) | AC50 (Cytochrome P450 2D6): 14.1 µM (inconclusive) | IC50 (Aminopeptidase N): 68.4 µM (active) | AC50 (Cytochrome P450 1A2): 10 µM (inconclusive)

CCC(Oc1ccccc1OC)C(=O)Nc1ccc2c(c1)OCCO2 (stereo unspecified)
IC50 [7]: 6.09 µM (active)

COc1cc(/C=N/Nc2ccnc(O)n2)ccc1O
IC50 (Large T antigen): 6.16 µM (active)
